Laboratory results published in ChEMBL document CHEMBL5291721, “A preclinical secondary pharmacology resource illuminates target-adverse drug reaction associations of marketed drugs” (Nat Commun, 2023).

Columns and labels:
Adenosine receptor A2a = Adenosine receptor A2a (Homo sapiens, UniProt P29274)
[1] = biological target: T1, Alpha-2B adrenergic receptor (Homo sapiens, UniProt P18089)
T1 sequence (P18089 whole entry): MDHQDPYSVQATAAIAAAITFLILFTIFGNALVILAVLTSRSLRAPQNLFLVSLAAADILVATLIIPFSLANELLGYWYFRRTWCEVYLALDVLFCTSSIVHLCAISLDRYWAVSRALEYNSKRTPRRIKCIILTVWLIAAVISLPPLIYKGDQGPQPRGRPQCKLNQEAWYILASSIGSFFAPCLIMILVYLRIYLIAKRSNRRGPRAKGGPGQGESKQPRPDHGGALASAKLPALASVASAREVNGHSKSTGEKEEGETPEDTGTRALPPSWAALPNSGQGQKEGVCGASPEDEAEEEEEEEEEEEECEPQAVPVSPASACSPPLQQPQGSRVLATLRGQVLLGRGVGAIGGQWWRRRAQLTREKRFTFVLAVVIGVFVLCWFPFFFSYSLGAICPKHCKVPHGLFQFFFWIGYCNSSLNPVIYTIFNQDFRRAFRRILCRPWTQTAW

[2] = biological target: Beta-1 adrenergic receptor (Homo sapiens, UniProt P08588); assay type: functional
[3] = biological target: T2, Gastrin/cholecystokinin type B receptor (Homo sapiens, UniProt P32239)
T2 sequence (P32239 whole entry): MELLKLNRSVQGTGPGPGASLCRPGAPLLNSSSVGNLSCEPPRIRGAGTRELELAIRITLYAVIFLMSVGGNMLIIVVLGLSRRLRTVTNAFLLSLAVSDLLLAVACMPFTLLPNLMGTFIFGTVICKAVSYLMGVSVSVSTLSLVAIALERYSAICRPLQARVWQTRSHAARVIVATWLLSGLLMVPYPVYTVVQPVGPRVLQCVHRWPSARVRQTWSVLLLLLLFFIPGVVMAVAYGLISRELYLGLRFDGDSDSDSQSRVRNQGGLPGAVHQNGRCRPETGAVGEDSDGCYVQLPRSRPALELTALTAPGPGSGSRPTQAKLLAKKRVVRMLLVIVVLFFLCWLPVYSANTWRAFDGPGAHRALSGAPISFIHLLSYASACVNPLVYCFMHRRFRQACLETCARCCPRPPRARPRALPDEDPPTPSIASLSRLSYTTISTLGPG

[4] = biological target: Neuronal acetylcholine receptor subunit alpha-4 (Homo sapiens, UniProt P43681)
[5] = biological target: T3, 5-hydroxytryptamine receptor 1A (Homo sapiens, UniProt P08908); assay type: functional, cell-based
T3 sequence (P08908 whole entry): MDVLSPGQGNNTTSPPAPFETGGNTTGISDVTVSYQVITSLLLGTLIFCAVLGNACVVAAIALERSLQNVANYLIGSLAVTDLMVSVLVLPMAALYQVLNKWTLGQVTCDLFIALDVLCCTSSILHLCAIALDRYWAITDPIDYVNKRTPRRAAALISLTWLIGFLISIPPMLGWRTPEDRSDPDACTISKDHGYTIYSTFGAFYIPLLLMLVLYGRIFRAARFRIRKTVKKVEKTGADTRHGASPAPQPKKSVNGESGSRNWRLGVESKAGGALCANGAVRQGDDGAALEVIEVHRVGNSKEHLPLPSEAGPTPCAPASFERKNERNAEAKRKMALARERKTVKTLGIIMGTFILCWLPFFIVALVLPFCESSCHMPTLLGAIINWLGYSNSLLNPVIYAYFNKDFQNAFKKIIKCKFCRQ

[6] = biological target: 5-hydroxytryptamine receptor 2A (Homo sapiens, UniProt P28223); assay type: functional, cell-based
[7] = biological target: Kappa-type opioid receptor (Homo sapiens, UniProt P41145)
Thromboxane A2 receptor = biological target: T4, Thromboxane A2 receptor (Homo sapiens, UniProt P21731)
T4 sequence (P21731 whole entry): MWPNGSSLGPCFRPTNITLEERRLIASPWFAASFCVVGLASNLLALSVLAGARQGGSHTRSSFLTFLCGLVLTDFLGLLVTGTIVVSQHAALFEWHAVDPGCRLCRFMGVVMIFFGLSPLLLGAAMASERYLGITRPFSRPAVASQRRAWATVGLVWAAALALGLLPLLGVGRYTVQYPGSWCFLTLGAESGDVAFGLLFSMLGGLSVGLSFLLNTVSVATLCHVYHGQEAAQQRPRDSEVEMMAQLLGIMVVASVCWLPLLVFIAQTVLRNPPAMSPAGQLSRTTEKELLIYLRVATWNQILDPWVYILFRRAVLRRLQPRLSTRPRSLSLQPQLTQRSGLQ

Glucocorticoid receptor = biological target: T5, Glucocorticoid receptor (Homo sapiens, UniProt P04150)
T5 sequence (P04150 whole entry): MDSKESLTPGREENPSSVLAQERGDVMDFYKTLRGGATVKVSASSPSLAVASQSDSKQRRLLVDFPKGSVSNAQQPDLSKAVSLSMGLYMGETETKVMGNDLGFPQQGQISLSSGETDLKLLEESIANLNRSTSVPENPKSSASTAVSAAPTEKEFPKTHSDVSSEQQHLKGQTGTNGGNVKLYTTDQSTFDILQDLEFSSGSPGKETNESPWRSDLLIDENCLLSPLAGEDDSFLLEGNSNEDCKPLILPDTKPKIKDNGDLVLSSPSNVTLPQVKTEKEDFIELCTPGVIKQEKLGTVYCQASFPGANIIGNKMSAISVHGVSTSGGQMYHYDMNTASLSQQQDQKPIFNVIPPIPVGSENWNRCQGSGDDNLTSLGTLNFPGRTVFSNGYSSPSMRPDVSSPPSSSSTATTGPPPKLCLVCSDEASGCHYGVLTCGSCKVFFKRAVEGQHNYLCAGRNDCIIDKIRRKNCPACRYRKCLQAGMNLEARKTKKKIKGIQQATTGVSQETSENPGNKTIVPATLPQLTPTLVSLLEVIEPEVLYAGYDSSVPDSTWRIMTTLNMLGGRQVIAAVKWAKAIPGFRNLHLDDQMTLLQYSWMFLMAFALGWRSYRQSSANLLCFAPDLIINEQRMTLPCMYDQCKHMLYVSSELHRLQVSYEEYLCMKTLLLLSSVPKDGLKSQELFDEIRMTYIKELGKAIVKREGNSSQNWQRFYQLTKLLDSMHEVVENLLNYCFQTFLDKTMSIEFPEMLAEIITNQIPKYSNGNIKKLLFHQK
Note: assay procedure not described here.

Chain of Adenosine receptor A2a (P29274 whole entry): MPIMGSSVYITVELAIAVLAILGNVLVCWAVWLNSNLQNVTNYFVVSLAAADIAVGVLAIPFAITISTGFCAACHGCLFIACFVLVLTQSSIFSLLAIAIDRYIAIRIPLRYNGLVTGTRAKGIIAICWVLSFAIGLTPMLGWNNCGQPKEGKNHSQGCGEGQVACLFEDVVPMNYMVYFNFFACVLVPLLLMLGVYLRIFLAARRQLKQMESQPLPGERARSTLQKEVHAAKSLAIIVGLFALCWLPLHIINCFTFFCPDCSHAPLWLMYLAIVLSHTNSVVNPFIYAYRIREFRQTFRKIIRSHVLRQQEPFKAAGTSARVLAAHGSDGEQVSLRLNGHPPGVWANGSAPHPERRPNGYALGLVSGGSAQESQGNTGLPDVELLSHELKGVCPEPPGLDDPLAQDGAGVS
Chain of Neuronal acetylcholine receptor subunit alpha-4 (P43681 whole entry): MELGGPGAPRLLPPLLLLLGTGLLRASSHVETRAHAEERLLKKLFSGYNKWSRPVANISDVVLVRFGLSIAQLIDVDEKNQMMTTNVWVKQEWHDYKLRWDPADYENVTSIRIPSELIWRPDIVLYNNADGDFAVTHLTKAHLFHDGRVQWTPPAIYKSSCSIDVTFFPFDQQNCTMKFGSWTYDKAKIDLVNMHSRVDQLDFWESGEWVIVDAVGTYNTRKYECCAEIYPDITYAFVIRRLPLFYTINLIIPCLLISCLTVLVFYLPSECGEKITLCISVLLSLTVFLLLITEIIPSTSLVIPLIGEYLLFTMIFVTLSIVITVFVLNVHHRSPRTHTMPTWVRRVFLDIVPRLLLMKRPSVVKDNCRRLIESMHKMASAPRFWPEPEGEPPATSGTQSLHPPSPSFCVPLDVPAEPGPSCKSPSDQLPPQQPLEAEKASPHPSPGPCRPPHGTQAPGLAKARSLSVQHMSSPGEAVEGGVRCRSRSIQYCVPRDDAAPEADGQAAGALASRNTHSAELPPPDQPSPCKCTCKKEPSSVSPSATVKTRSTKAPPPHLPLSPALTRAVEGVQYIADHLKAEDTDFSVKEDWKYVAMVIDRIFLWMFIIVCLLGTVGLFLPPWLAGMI
Chain of Beta-1 adrenergic receptor (P08588 whole entry): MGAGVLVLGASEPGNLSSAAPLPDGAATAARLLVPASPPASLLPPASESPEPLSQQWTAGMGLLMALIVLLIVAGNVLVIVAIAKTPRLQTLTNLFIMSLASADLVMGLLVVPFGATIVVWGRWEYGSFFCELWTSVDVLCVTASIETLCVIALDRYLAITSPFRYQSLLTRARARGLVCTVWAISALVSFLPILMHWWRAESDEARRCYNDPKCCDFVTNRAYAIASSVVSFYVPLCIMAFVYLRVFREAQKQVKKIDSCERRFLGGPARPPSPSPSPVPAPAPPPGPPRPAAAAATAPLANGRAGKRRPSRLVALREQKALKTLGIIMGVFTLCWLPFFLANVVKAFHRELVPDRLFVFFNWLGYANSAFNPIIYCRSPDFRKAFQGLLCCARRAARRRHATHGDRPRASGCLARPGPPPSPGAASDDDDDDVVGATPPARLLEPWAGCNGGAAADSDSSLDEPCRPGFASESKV
Chain of Kappa-type opioid receptor (P41145 whole entry): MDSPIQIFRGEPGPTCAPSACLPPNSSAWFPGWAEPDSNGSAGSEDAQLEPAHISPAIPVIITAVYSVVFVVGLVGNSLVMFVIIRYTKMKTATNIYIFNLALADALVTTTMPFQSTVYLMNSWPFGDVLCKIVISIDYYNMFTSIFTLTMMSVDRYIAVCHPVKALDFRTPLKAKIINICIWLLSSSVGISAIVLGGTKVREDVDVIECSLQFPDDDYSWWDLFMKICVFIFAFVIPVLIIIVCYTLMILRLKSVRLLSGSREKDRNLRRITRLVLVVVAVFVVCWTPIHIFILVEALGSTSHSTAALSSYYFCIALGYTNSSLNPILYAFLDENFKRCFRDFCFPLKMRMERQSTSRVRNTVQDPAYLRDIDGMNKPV
Chain of 5-hydroxytryptamine receptor 2A (P28223 whole entry): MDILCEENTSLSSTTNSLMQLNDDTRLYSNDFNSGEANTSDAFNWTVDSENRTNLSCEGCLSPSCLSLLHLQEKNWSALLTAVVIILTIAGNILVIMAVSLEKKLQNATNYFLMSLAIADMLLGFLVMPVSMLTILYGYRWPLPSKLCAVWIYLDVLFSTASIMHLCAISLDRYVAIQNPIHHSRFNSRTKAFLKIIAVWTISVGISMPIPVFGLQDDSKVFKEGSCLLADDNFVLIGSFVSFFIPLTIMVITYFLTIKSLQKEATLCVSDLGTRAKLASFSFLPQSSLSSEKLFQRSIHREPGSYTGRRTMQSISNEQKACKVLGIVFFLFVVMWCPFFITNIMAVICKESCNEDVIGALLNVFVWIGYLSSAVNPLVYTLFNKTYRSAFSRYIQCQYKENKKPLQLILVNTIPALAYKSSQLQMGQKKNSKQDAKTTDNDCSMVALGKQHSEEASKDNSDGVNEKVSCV

| SMILES | AC50 (Adenosine receptor A2a) [µM] | AC50 [1] [µM] | AC50 [2] [µM] | AC50 [3] [µM] | AC50 [4] [µM] | AC50 [5] [µM] | AC50 [6] [µM] | AC50 [7] [µM] | AC50 (Thromboxane A2 receptor) [µM] | AC50 (Glucocorticoid receptor) [µM] |
| --- | --- | --- | --- | --- | --- | --- | --- | --- | --- | --- |
| COc1ccc(-c2ccc3cc(C(=O)O)ccc3c2)cc1C12CC3CC(CC(C3)C1)C2 | > 30 | > 30 | > 30 | > 30 | > 30 | > 30 | > 30 | > 30 | > 30 |  |
| COc1ccccc1N1CCN(CCCNc2cc(=O)n(C)c(=O)n2C)CC1 | > 30 |  |  | > 30 | > 30 |  | > 30 | > 30 | > 30 |  |
| CCOC(=O)[C@H](CCc1ccccc1)N[C@@H](C)C(=O)N1C(=O)N(C)C[C@H]1C(=O)O | > 30 | > 30 | > 30 | > 30 | > 30 | > 30 | > 30 |  | > 30 |  |
| CC(C)(C)C(=O)Oc1ccc(S(=O)(=O)Nc2ccccc2C(=O)NCC(=O)O)cc1 | > 30 | > 30 | > 30 | > 30 | > 30 | > 30 | > 30 | > 30 | > 30 |  |
| CC(=O)O[C@H]1CC[C@@]2(C)C(=CC[C@@H]3[C@@H]2CC[C@]2(C)C(c4cccnc4)=CC[C@@H]32)C1 [ABIRATERONE ACETATE] | > 30 | > 30 | > 30 |  | > 30 | > 30 | > 30 |  | > 30 |  |
| O=C(O)CCCCCCCC(=O)O [AZELAIC ACID] | > 10 | > 10 | > 10 |  | > 10 | > 10 | > 10 | > 10 | > 10 |  |
| CC(C[N+](C)(C)C)OC(N)=O (centres undefined) [BETHANECHOL] | > 10 | > 10 | > 10 |  | > 10 | > 10 | > 10 | > 10 | > 10 | > 10 |
| C=CCC1(CC(C)C)C(=O)NC(=O)NC1=O [BUTALBITAL] | > 10 | > 30 | > 10 |  | > 10 | > 10 | > 10 | > 10 | > 10 | > 10 |
| CCN1CCN(C(=O)N[C@@H](C(=O)N[C@@H]2C(=O)N3C(C(=O)O)=C(CSc4nnnn4C)CS[C@H]23)c2ccc(O)cc2)C(=O)C1=O [CEFOPERAZONE] | > 30 | > 30 | > 30 | > 30 | > 30 | > 30 | > 30 | > 10 |  |  |
| CC1(C)O[C@@H]2C[C@H]3[C@@H]4CCC5=CC(=O)C=C[C@]5(C)[C@H]4[C@@H](O)C[C@]3(C)[C@]2(C(=O)CO)O1 [DESONIDE] | > 10 | > 10 | > 10 |  | > 10 | > 10 | > 10 | > 10 | > 10 | 0.016 |
| C[C@]1(O)CC[C@H]2[C@@H]3CCC4=CC(=O)CC[C@]4(C)[C@@]3(F)[C@@H](O)C[C@@]21C [FLUOXYMESTERONE] | > 10 | > 30 | > 10 |  | > 10 | > 10 | > 10 | > 10 | > 10 | 0.088 |
| CCCC(=O)O[C@]1(C(=O)CO)CC[C@H]2[C@@H]3CCC4=CC(=O)CC[C@]4(C)[C@H]3[C@@H](O)C[C@@]21C [HYDROCORTISONE BUTYRATE] | > 10 | > 10 | > 10 |  | > 10 | > 10 | > 10 | > 10 | > 10 | 0.008 |
| CC(C)C(=O)c1c(C(C)C)nn2ccccc12 [IBUDILAST] | 17 | > 30 | > 30 | > 30 | > 30 | > 30 | > 30 | > 30 | > 30 |  |
| CCCC(C)C1(CC)C(=O)NC(=O)NC1=O (centres undefined) [PENTOBARBITAL] | > 10 | > 30 | > 10 |  | > 10 | > 10 | > 10 | > 10 | > 10 |  |
| CC[C@@H]1C(=O)OC[C@@H]1Cc1cncn1C [PILOCARPINE] | > 30 | > 10 |  | > 30 | > 10 | > 30 | > 30 | > 10 | > 30 |  |
| O=C(O)C[C@H](O)C[C@H](O)/C=C/c1c(C2CC2)nc2ccccc2c1-c1ccc(F)cc1 [PITAVASTATIN] | > 30 |  | > 30 |  | > 30 | > 10 | > 30 | > 10 | > 10 | > 10 |
| C#C[C@]1(O)CC[C@H]2[C@@H]3CCc4cc(OC5CCCC5)ccc4[C@H]3CC[C@@]21C [QUINESTROL] | > 10 | > 10 | > 10 |  | > 10 | > 10 | > 10 | > 10 | > 10 |  |
| CN1C(=O)C(O)N=C(c2ccccc2)c2cc(Cl)ccc21 (centres undefined) [TEMAZEPAM] | > 30 | > 10 | > 10 | > 30 | > 10 | > 10 | > 30 | 9.19 | > 30 |  |
| CC(CC(c1ccccc1)c1ccccc1)NC(C)(C)C (centres undefined) [TERODILINE] | > 30 | 16 | > 30 | > 30 | > 30 | > 30 | > 30 | 8.4 | > 30 |  |
